From publication PMC10455244, “Alpha-Mangostin: A Potent Inhibitor of TRPV3 and Pro-Inflammatory Cytokine Secretion in Keratinocytes” (International Journal of Molecular Sciences, 2023) come the findings set out here.

Assay [1] deals with TRPV3 (G573C)-expressing HEK 293T cells. Kind of assay: cells. In kind it is cell-based. The settings on record: Homo sapiens, 24 h, read-out: Cell viability (normalized O.D., compared with mock cells). The source says: (§1) Figure 4 Alpha-mangostin inhibited the activity of hyperactive TRPV3 mutant channels and rescued mutation-induced cell death. (A) Alpha-mangostin inhibited the channel current in representative TRPV3 (G573S)- and TRPV3 (G573C)-expressing HEK 293T cells. […] Currents were normalized to the response at −100 mV before adding alpha-mangostin. (C) Alpha-mangostin inhibited TRPV3-mediated intracellular calcium increase in TRPV3 (G573S)-expressing HEK 293T cells. […] The bar graph on the right summarizes the change in the intracellular calcium rise inhibited by alpha-mangostin. Cells were perfused with calcium-free solutions containing 0 or 1 µM alpha-mangostin or 10 µM 74a before changing to 1.3 mM Ca^2+ solutions containing the same substance concentration. (D) Alpha-mangostin inhibited TRPV3-mediated intracellular calcium increase in TRPV3 (G573C)-expressing HEK 293T cells. […] The bar graph on the right summarizes the change in the intracellular calcium rise inhibited by alpha-mangostin. Cells were perfused with calcium-free solutions containing 0 or 1 µM alpha-mangostin or 10 µM 74a before changing to 1.3 mM Ca^2+ solutions containing the same substance concentration. […]
(§2) The cell counting kit-8 (CCK8; Dojindo Laboratories, Kumamoto, Japan) was employed for viability assay. […] The optical density (O.D., 450 nm) of each well was measured after incubating the cells with CCK-8 solution ([…]) for 2 h. […]

Assay [2] relates to TRPV3 (G573S)-expressing HEK 293T cells. Kind of assay: cells. The assay is classed as cell-based. The settings on record: Homo sapiens, 24 h, read-out: Cell viability (normalized O.D., compared with mock cells).
Source text: as §1, §2

By viability is commonly meant a per cent measure of how many cells are alive, often set against a control. On to `COc1c(O)cc2oc3cc(O)c(CC=C(C)C)c(O)c3c(=O)c2c1CC=C(C)C` [Alpha-mangostin], for which the viability at 1 µM in assay [1] worked out at 93.5%; in assay [2] it was 86.8%.
